According to patent publication US7279582B2, “Retroviral protease inhibiting compounds” (priority 1995, dated 2007):

Tests used:
HIV protease = HIV protease (Human immunodeficiency virus type 1 group M subtype B, UniProt P04585); test: Fluorogenic assay for screening inhibitors of HIV protease; type: biochemical
Experimental: Fluorogenic Assay for Screening Inhibitors of HIV Protease
The inhibitory potency of the compound of the invention can be determined by the following method.
The compound of the invention is dissolved in DMSO and a small aliquot further diluted with DMSO to 100 times the final concentration desired for testing. The reaction is carried out in a 6×50 mm tube in a total volume of 300 microliters. The final concentrations of the components in the reaction buffer are: 125 mM sodium acetate, 1 M sodium chloride, 5 mM dithiothreitol, 0.5 mg/ml bovine serum albumin, 1.3 μM fluorogenic substrate, 2% (v/v) dimethylsulfoxide, pH 4.5. After addition of inhibitor, the reaction mixture is placed in the fluorometer cell holder and incubated at 30° C. for several minutes. The reaction is initiated by the addition of a small aliquot of cold HIV protease. The fluorescence intensity (excitation 340 nm, emmision 490 nM) is recorded as a function of time. The reaction rate is determined for the first six to eight minutes. The observed rate is directly proportional to the moles of substrate cleaved-per unit time. The percent inhibition is 100×(1−(rate in presence of inhibitor)/(rate in absence of inhibitor)).
Fluorogenic substrate: Dabcyl-Gaba-Ser-Gln-Asn-Tyr-Pro-lle-Val-Gln-EDANS wherein DABCYL=4-(4-dimethylamino-phenyl)azobenzoic acid, Gaba=γ-aminobutyric acid, and EDANS=5-((2-aminoethyl)amino)-naphthalene-1-sulfonic acid.

HIVIIIB = test: Anti-HIV activity in MT4 cells infected with HIVIIIB (MTT readout); type: cell-based; conditions: 0% plasma, 5 days, n=4 duplicate determinations
Description: (§1) The anti-HIV activity of the compound of the invention can be determined in MT4 cells according to the following procedure. MT4 cells were infected with cell-free supernatant of HIVIIIB (previously frozen with known 50% tissue culture infectious dose (TCID50) at 0.003 multiplicity of infection (MOI) for one hour. After one hour infection, cells were washed twice to remove residual viruses, resuspended in culture media and seeded into 96-well tissue culture plates at 1×10^4 cells per well with various half-log dilutions of compounds. Uninfected cells are included as toxicity and cell controls. RPMI 1640 media (Gibco) with 10% fetal bovine serum were used as culture media. Various concentrations of human serum (Sigma) 50%, 25% and 12.5% were added to culture media resulting in final concentration of 60%, 35% and 22.5% total serum. All assay plates were incubated in 37 deg. cent. incubator for 5 days. MTT (sigma, 5 mg/ml stock in PBS) was added to all wells at 25 ul per well, incubate for 4 hours. 20% SDS with 0.02 N HCI in water was added at 50 ul per well to lyse cells. Plates incubated overnight for complete lyses were read on a microtitre plate reader at 570/650 nm wavelengths to determine cell optical density (O.D.). Raw data were analysed for percent inhibition by the following formula: O.D. test well−O.D. virus control×100 O.D. cell control−O.D. virus control The 50% effective concentration (EC50) was calculated by the median effect equation (Chou, 1975, Proc. Int. Cong. Pharmacol. 6th p. 619) to determine the efficacy of compound. The 50% lethal concentration (LC50) was calculated using uninfected MT4 cells.
(§2) Under these conditions, the following data were obtained (n=4 duplicate determinations: […]

uninfected MT4 cells = type: cell-based; conditions: n=4 duplicate determinations, read-out: LC50 (the source's name)
Description: as §1, §2

[1] = Inhibitor Concentration 0.5 nanomolar

SMILES	Percent Inhibition (HIV protease; [1]) [%]	IC50 (HIVIIIB) [µM]	CC50 (uninfected MT4 cells) [µM]	Percent Inhibition (HIV protease; Inhibitor Concentration 1.0 nanomolar) [%]
CC(C)[C@@H](C(=O)N[C@@H](Cc1ccccc1)C[C@H](O)[C@H](Cc1ccccc1)NC(=O)O[C@@H]1CCS(=O)(=O)[C@@H]1C(C)C)N1CCCNC1=O (racemic) [Example 22E, (2S,3S,5S)-2-(cis(±)-1,1-Dioxo-2-isopropyl-3-tetrahydrothiophenoxy)amino-3-hydroxy-5-(2S-(1-tetrahydropyrimid-2-onyl)-3-methylbutanoyl)amino-1,6-diphenylhexane]	71.8	–	–	–
Cc1cccc(C)c1/C=C/C(=O)N[C@@H](Cc1ccccc1)[C@@H](O)C[C@H](Cc1ccccc1)NC(=O)[C@H](C(C)C)N1CCCNC1=O (relative stereo) [Example 19E]	68.5	0.395	17.9	–
Cc1cccc(C)c1OCC(=O)N[C@@H](Cc1ccccc1)[C@@H](O)C[C@H](Cc1ccccc1)NC(=O)[C@H](C(C)C)N1CCNC1=O [Example 1P, (2S,3S,5S)-2-(2,6-dimethylphenoxyacetyl)amino-3-hydroxy-5-[2S-(1-imidazolidin-2-onyl)-3-methyl-butanoyl]amino-1,6-diphenylhexane]	92.6	0.01	41.3	–
Cc1cccc(C)c1OCC(=O)N[C@@H](Cc1ccccc1)[C@@H](O)C[C@H](Cc1ccccc1)NC(=O)[C@H](C(C)C)N1CCCNC1=O [Example 2B, (2S,3S,5S)-2-(2,6-Dimethylphenoxyacetyl)amino-3-hydroxy-5-[2S-(1-tetrahydro-pyrimid-2-onyl)-3-methylbutanoyl]amino-1,6-diphenylhexane]	93.2	0.016	17.8	–
Cc1cccc(C)c1OCC(=O)N[C@@H](Cc1ccccc1)[C@@H](O)C[C@H](Cc1ccccc1)NC(=O)[C@H](C(C)C)N1CCOC1=O [Example 3C, (2S,3S,5S)-2-(2,6-Dimethylphenoxyacetyl)amino-3-hydroxy-5-[2S-(3-oxazolidin-2-onyl)-3-methyl-butanoyl]amino-1,6-diphenylhexane]	86.9	0.025	49.5	–
CC(C)[C@@H](C(=O)N[C@@H](Cc1ccccc1)C[C@H](O)[C@H](Cc1ccccc1)NC(=O)O[C@H]1CO[C@H]2OCC[C@H]21)N1CCN(C)C1=O [Example 4F, (2S,3S,5S)-2-[(3R, 3aS, 6aR)-Bis-tetrahydrofuranyloxy]amino-3-hydroxy-5-[2S-(3-methyl-1-imidazolidin-2-onyl)-3-methylbutanoyl]amino-1,6-diphenylhexane]	49.7	0.101	> 100	–
CC(C)[C@@H](C(=O)N[C@@H](Cc1ccccc1)C[C@H](O)[C@H](Cc1ccccc1)NC(=O)O[C@H]1CO[C@H]2OCC[C@H]21)N1CCNC1=O [Example 5, (2S,3S,5S)-2-[(3R,3aS,6aR)-Bis-tetrahydrofuranyloxy]amino-3-hydroxy-5-[2S-(1-imidazolidin-2-onyl)-3-methylbutanoyl]amino-1,6-diphenylhexane]	80.8	0.368	> 100	–
CC(C)[C@@H](C(=O)N[C@@H](Cc1ccccc1)C[C@H](O)[C@H](Cc1ccccc1)NC(=O)OCc1cncs1)N1CCNC1=O [Example 6F, (2S,3S,5S)-2-(N-((5-Thiazolyl)methoxycarbonyl)amino)-5-((2S-(1-imidazolidin-2-onyl)-3-methyl-butanoyl)-amino)-3-hydroxy-1,6-diphenylhexane]	61.4	0.193	> 100	–
CC(C)(C)[C@@H](C(=O)N[C@@H](Cc1ccccc1)C[C@H](O)[C@H](Cc1ccccc1)NC(=O)OCc1cncs1)N1CCNC1=O [Example 7B, (2S,3S,5S)-2-(N-((5-Thiazolyl)-methoxycarbonyl)amino)-3-hydroxy-5-(2S-(1-imidazolidin-2-onyl)-3,3-dimethylbutanoyl)amino-1,6-diphenylhexane]	67.1	0.204	> 100	–
Cc1cccc(C)c1OCC(=O)N[C@@H](Cc1ccccc1)[C@@H](O)C[C@H](Cc1ccccc1)NC(=O)[C@@H](N1CCNC1=O)C(C)(C)C [Example 8, (2S,3S,5S)-2-(2,6-Dimethylphenoxyacetyl)amino-3-hydroxy-5-(2S-(1-imidazolidin-2-onyl)-3,3-dimethylbutanoyl)amino-1,6-diphenylhexane]	55.6	0.019	17.8	–
Cc1cccc(C)c1OCC(=O)N[C@@H](Cc1ccccc1)[C@@H](O)C[C@H](Cc1ccccc1)NC(=O)[C@H](C(C)C)N1CCNC1=S [Example 9B, (2S,3S,5S)-2-(2,6-Dimethylphenoxyacetyl)amino-3-hydroxy-5-(2S-(1-imidazolidin-2-thionyl)-3-methylbutanoyl)amino-1,6-diphenylhexane]	62.6	0.272	19.3	–
Cc1cc(N)cc(C)c1OCC(=O)N[C@@H](Cc1ccccc1)[C@@H](O)C[C@H](Cc1ccccc1)NC(=O)[C@H](C(C)C)N1CCNC1=O [Example 10F, (2S,3S,5S)-2-(4-Amino-2,6-dimethylphenoxyacetyl)amino-3-hydroxy-5-(2S-(1-imidazolidin-2-onyl)-3-methyl-butanoyl)amino-1,6-diphenylhexane]	81.0	0.047	92	–
Cc1cc(C)c(OCC(=O)N[C@@H](Cc2ccccc2)[C@@H](O)C[C@H](Cc2ccccc2)NC(=O)[C@H](C(C)C)N2CCNC2=O)c(C)c1 [Example 11B, (2S,3S,5S)-2-(2,4,6-Trimethylphenoxyacetyl)amino-3-hydroxy-5-(2S-(1-imidazolidin-2-onyl)-3-methylbutanoyl)amino-1,6-diphenylhexane]	91.1	0.19	18.2	–
Cc1cc(F)cc(C)c1OCC(=O)N[C@@H](Cc1ccccc1)[C@@H](O)C[C@H](Cc1ccccc1)NC(=O)[C@H](C(C)C)N1CCNC1=O [Example 12B, (2S,3S,5S)-2-(4-Fluoro-2,6-dimethylphenoxyacetyl)amino-3-hydroxy-5-(2S-(1-imidazolidin-2-onyl)-3-methyl-butanoyl)amino-1,6-diphenylhexane]	76.8	0.093	19.1	–
Cc1ncnc(C)c1OCC(=O)N[C@@H](Cc1ccccc1)[C@@H](O)C[C@H](Cc1ccccc1)NC(=O)[C@H](C(C)C)N1CCNC1=O [Example 13B, (2S,3S,5S)-2-(4,6-Dimethylpyrimidin-5-oxy-acetyl)amino-3-hydroxy-5-(2S-(1-imidazolidin-2-onyl)-3-methyl-butanoyl)amino-1,6-diphenylhexane]	–	–	–	56.2
Cc1ccnc(C)c1OCC(=O)N[C@@H](Cc1ccccc1)[C@@H](O)C[C@H](Cc1ccccc1)NC(=O)[C@@H](N1CCNC1=O)C(C)(C)C [Example 14D, (2S,3S,5S)-2-(2,4-Dimethyl-pyridin-3-oxy-acetyl)amino-3-hydroxy-5-(2S-(1-imidazolidin-2-onyl)-3,3-dimethylbutanoyl)amino-1,6-diphenylhexane]	52.7	0.053	> 100	–
Cc1cccc(C)c1CCC(=O)N[C@@H](Cc1ccccc1)[C@@H](O)C[C@H](Cc1ccccc1)NC(=O)[C@H](C(C)C)N1CCCNC1=O [Example 20D, (2S,3S,5S)-2-(3-(2,6-Dimethylphenyl)propanoyl)amino-3-hydroxy-5-(2S-(1-tetrahydropyrimidin-2-onyl)-3-methyl-butanoyl)amino-1,6-diphenylhexane]	–	0.283	24.1	–
Cc1cccc(C)c1OCC(=O)N[C@@H](Cc1ccccc1)[C@@H](O)C[C@H](Cc1ccccc1)NC(=O)[C@H](C(C)C)N1CCC(=O)NC1=O [Example 23C, (2S,3S,5S)-2-(2,6-Dimethylphenoxyacetyl)amino-3-hydroxy-5-(2S-(1-dihydropyrimid-2,4-dionyl)-3-methyl-butanoyl)amino-1,6-diphenylhexane]	86.0	–	–	–
